Some results are limits rather than exact numbers.

In one test the test system is TNFα. Briefly: cells. Type of test: cell-based, human. The following applies: Homo sapiens, Monocyte, LPS-stimulated human monocytes, TNFα content; read-out: EC50 TNF.
For the next test, the target named is IRAK4 enzyme (Homo sapiens (Human), UniProt Q9NWZ3). Briefly: biochemical. Conditions: IRAK4 enzyme, TR-FRET (HTRF), 500 μM ATP. Type of test: biochemical.
Sequence of IRAK4 enzyme (Q9NWZ3 whole entry): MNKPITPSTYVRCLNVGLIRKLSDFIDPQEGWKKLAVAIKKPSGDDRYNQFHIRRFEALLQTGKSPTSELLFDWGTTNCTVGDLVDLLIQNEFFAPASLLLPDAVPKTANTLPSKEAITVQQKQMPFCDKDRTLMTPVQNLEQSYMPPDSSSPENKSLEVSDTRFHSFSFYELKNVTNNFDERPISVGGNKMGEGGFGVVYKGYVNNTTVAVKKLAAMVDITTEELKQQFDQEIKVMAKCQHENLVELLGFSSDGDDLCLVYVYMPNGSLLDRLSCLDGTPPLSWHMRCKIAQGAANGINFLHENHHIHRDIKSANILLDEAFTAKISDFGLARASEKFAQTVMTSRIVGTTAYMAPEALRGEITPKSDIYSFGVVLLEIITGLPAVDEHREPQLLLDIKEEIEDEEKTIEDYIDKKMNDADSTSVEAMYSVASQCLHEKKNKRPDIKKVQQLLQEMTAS

Regarding `N#CCNC(=O)c1cnc(-c2ccc3cc(C#N)cnn23)cc1NC1CC1` [Example 461, N-(cyanomethyl)-6-(3-cyanopyrrolo[1,2-b]pyridazin-7-yl)-4-(cyclopropylamino) nicotinamide], the EC50 in the test with TNFα came to 57 nM. For the same molecule, the IC50 at IRAK4 enzyme is less than 1 nM.

For `CC(C)Nc1cc(-c2ccc3cc(C#N)cnn23)ncc1C(=O)NCC#N` [Example 462, N-(cyanomethyl)-6-(3-cyanopyrrolo[1,2-b]pyridazin-7-yl)-4-(isopropylamino) nicotinamide], the EC50 with TNFα was 67 nM. The molecule also came in with a 50% inhibitory concentration (IC50) on IRAK4 enzyme of less than 1 nM.

Regarding `CNc1cc(-c2ccc3cc(C#N)cnn23)ncc1C(=O)NCC#N` [Example 463, N-(cyanomethyl)-6-(3-cyanopyrrolo[1,2-b]pyridazin-7-yl)-4-(methylamino)nicotinamide], in the test with TNFα, the EC50 was found to be 163 nM. At IRAK4 enzyme, this molecule came in with an IC50 of 3 nM.

For `CNC(=O)c1cnc(-c2ccc3cc(C#N)cnn23)cc1N[C@@H]1CCC[C@@H](C(=O)NC)C1` [Example 464, 6-(3-cyanopyrrolo[1,2-b]pyridazin-7-yl)-N-methyl-4-(((1R,3R)-3-(methylcarbamoyl)cyclohexyl)amino) nicotinamide], the half-maximal effective concentration (EC50) in the test with TNFα is 1110 nM. The molecule also came in with an IC50 on IRAK4 enzyme of 23 nM.

As for `CNC(=O)c1cnc(-c2ccc3cc(C#N)cnn23)cc1N[C@H]1CC[C@@H](C(=O)NC)C1` [Example 465, 6-(3-cyanopyrrolo[1,2-b]pyridazin-7-yl)-N-methyl-4-(((1S,3R)-3-(methyl-carbamoyl)cyclopentyl)amino)nicotinamide], the EC50 in the test on TNFα stood at 411 nM. This molecule also came in with an IC50 against IRAK4 enzyme of 8 nM.

Regarding `CNC(=O)c1cnc(-c2ccc3cc(C#N)cnn23)cc1N[C@@H]1CC[C@@H](C(=O)NC)C1` [Example 466, 6-(3-cyanopyrrolo[1,2-b]pyridazin-7-yl)-N-methyl-4-(((1R,3R)-3-(methyl-carbamoyl)cyclopentyl)amino)nicotinamide], the concentration for a half-maximal effect (EC50) in the test with TNFα is 259 nM. At IRAK4 enzyme, the midpoint of inhibition, the IC50, lay at 8 nM.

`CNC(=O)c1cnc(-c2ccc3cc(C#N)cnn23)cc1N[C@H]1CC[C@H](C(=O)NC)C1` [Example 467, 6-(3-cyanopyrrolo[1,2-b]pyridazin-7-yl)-N-methyl-4-(((1S,3S)-3-(methylcarbamoyl)cyclo-pentyl)amino)nicotinamide]: the concentration giving a half-maximal response (EC50) in the test with TNFα worked out at 167 nM. Inhibition on IRAK4 enzyme was half-maximal at 4 nM (IC50).

Consider `CNC(=O)c1cnc(-c2ccc3cc(C#N)cnn23)cc1NC12CCC(C(=O)NC)(CC1)C2` [Example 468, 6-(3-cyanopyrrolo[1,2-b]pyridazin-7-yl)-N-methyl-4-((4-(methylcarbamoyl)bicyclo[2.2.1]heptan-1-yl)amino)nicotinamide], for which, in the test with TNFα, the half-maximal effective concentration (EC50) was determined as 112 nM. At IRAK4 enzyme, this molecule displayed a half-maximal inhibitory concentration (IC50) of 1 nM.

On to `CNC(=O)c1cnc(-c2ccc3cc(C#N)cnn23)cc1N[C@@H]1CC[C@H](C(=O)NC)C1` [Example 469, 6-(3-cyanopyrrolo[1,2-b]pyridazin-7-yl)-N-methyl-4-(((1R,3S)-3-(methylcarbamoyl)cyclo-pentyl)amino)nicotinamide], for which, in the test on TNFα, the EC50 stood at 1100 nM. Further, half-maximal inhibition against IRAK4 enzyme (IC50) required 41 nM.

Regarding `CNC(=O)c1cnc(-c2ccc3cc(C#N)cnn23)cc1N[C@H]1CCC[C@@H](C(=O)NC)C1` [Example 470, 6-(3-cyanopyrrolo[1,2-b]pyridazin-7-yl)-N-methyl-4-(((1S,3R)-3-(methyl-carbamoyl)cyclohexyl)amino)nicotinamide], the EC50 with TNFα turned out to be 440 nM. Moreover, at IRAK4 enzyme, 25 nM corresponded to half-maximal inhibition (IC50).

With `CNC(=O)c1cnc(-c2ccc3cc(C#N)cnn23)cc1N[C@H]1C[C@@H](C(=O)NC)C1` [Example 471, 6-(3-cyanopyrrolo[1,2-b]pyridazin-7-yl)-N-methyl-4-(((1s,3s)-3-(methylcarbamoyl)cyclobutyl)amino) nicotinamide], in the test with TNFα, the EC50 came to 74 nM. This molecule also displayed an IC50 against IRAK4 enzyme of 9 nM.

With `CNC(=O)c1cnc(-c2ccc3cc(C#N)cnn23)cc1N[C@H]1C[C@H](C(=O)NC)C1` [Example 472, 6-(3-cyanopyrrolo[1,2-b]pyridazin-7-yl)-N-methyl-4-(((1r,3r)-3-(methylcarbamoyl)cyclobutyl)amino) nicotinamide], in the test with TNFα, the EC50 was 5410 nM. Besides, 43 nM corresponded to half-maximal inhibition against IRAK4 enzyme (IC50).

For `CNC(=O)c1cnc(-c2ccc3cc(C#N)cnn23)cc1NC12CCC(NC(C)=O)(CC1)C2` [Example 473, 4-((4-acetamido-bicyclo[2.2.1]heptan-1-yl)amino)-6-(3-cyano-pyrrolo[1,2-b]pyridazin-7-yl)-N-methylnicotinamide], the EC50 with TNFα was 33 nM. At IRAK4 enzyme, this molecule yielded a 50% inhibitory concentration (IC50) of 1 nM.

With `N#CCNC(=O)c1cnc(-c2ccc3cc(C#N)cnn23)cc1NC12CCC(C(=O)N3CC(F)(F)C3)(CC1)CC2` [Example 474, N-(cyanomethyl)-6-(3-cyanopyrrolo[1,2-b]pyridazin-7-yl)-4-((4-(3,3-difluoroazetidine-1-carbonyl)bicyclo[2.2.2]octan-1-yl)amino)nicotinamide], the concentration for a half-maximal effect (EC50) with TNFα is 23 nM. On IRAK4 enzyme, this molecule had an IC50 of less than 1 nM.

On to `CNC(=O)C12CCC(Nc3cc(-c4ccc5cc(C#N)cnn45)ncc3C(=O)NCC#N)(CC1)CC2` [Example 475, N-(cyanomethyl)-6-(3-cyanopyrrolo[1,2-b]pyridazin-7-yl)-4-((4-(methylcarbamoyl)bicyclo[2.2.2]octan-1-yl)amino)nicotinamide], for which, in the test on TNFα, the concentration giving a half-maximal response (EC50) amounted to 16 nM. On IRAK4 enzyme, this molecule yielded an IC50 of less than 1 nM.

With `CC(=O)NC12CCC(Nc3cc(-c4ccc5cc(C#N)cnn45)ncc3C(=O)NCC#N)(CC1)CC2` [Example 476, 4-((4-acetamido-bicyclo[2.2.2]octan-1-yl)amino)-N-(cyano-methyl)-6-(3-cyano-pyrrolo[1,2-b]pyridazin-7-yl)nicotinamide], the concentration giving a half-maximal response (EC50) in the test on TNFα stood at 27 nM. For the same molecule, the half-inhibitory concentration (IC50) on IRAK4 enzyme was less than 1 nM.

As for `CC(=O)NC12CC(Nc3cc(-c4ccc5cc(C#N)cnn45)ncc3C(=O)NC3CCC(C(=O)N4CCOCC4)CC3)(C1)C2` (stereo not drawn) [Example 477, 4-((3-acetamido-bicyclo[1.1.1]pentan-1-yl)amino)-6-(3-cyano-pyrrolo[1,2-b]pyridazin-7-yl)-N-((1r,4r)-4-(morpholine-4-carbonyl)cyclohexyl) nicotinamide], in the test with TNFα, the half-maximal effective concentration (EC50) is 98 nM. For the same molecule, the half-maximal inhibitory concentration (IC50) on IRAK4 enzyme worked out at 1 nM.

Regarding `CC(=O)NC12CC(Nc3cc(-c4ccc5cc(C#N)cnn45)ncc3C(=O)N[C@H]3CC[C@H](C(=O)N4CC(F)(F)C4)CC3)(C1)C2` [Example 478, 4-((3-acetamido-bicyclo[1.1.1]pentan-1-yl)amino)-6-(3-cyano-pyrrolo[1,2-b]pyridazin-7-yl)-N-((1r,4r)-4-(3,3-difluoroazetidine-1-carbonyl)cyclohexyl) nicotinamide], the EC50 with TNFα came out at 73 nM. At IRAK4 enzyme, this molecule registered a 50% inhibitory concentration (IC50) of 1 nM.

Consider `CNC(=O)[C@H]1CC[C@H](NC(=O)c2cnc(-c3ccc4cc(C#N)cnn34)cc2NC23CC(NC(C)=O)(C2)C3)CC1` [Example 479, 4-((3-acetamidobicyclo[1.1.1]pentan-1-yl)amino)-6-(3-cyanopyrrolo[1,2-b]pyridazin-7-yl)-N-((1r,4r)-4-(methylcarbamoyl)cyclohexyl)nicotinamide], for which the half-maximal effective concentration (EC50) with TNFα is 71 nM. The same molecule had an IC50 at IRAK4 enzyme of less than 1 nM.

Turning to `CNC(=O)c1cnc(-c2ccc3cc(C#N)cnn23)cc1NC12CC(NC(=O)C3CC3)(C1)C2` [Example 480, 6-(3-cyanopyrrolo[1,2-b]pyridazin-7-yl)-4-((3-(cyclopropanecarboxamido)bicyclo[1.1.1]pentan-1-yl)amino)-N-methylnicotin-amide], the EC50 in the test with TNFα was 92 nM. In addition, at IRAK4 enzyme, half-maximal inhibition (IC50) required 2 nM.

Turning to `CNC(=O)c1cnc(-c2ccc3cc(C#N)cnn23)cc1NC12CCC(C(=O)NC3CC3)(CC1)CC2` [Example 481, 6-(3-cyanopyrrolo[1,2-b]pyridazin-7-yl)-4-((4-(cyclopropylcarbamoyl)bicyclo[2.2.2]octan-1-yl)amino)-N-methylnicotinamide], the EC50 in the test with TNFα is 63 nM. At IRAK4 enzyme, this molecule registered an IC50 of 2 nM.

In the case of `CNC(=O)c1cnc(-c2ccc3cc(C#N)cnn23)cc1NC12CCC(NC(C)=O)(CC1)CC2` [Example 482, 4-((4-acetamido-bicyclo[2.2.2]octan-1-yl)amino)-6-(3-cyano-pyrrolo[1,2-b]pyridazin-7-yl)-N-methylnicotinamide], in the test with TNFα, the EC50 came out at 48 nM. Besides, 1 nM corresponded to half-maximal inhibition against IRAK4 enzyme (IC50).

In the case of `CNC(=O)c1cnc(-c2ccc3cc(C#N)cnn23)cc1NC12CCC(C(=O)N3CC(F)(F)C3)(CC1)CC2` [Example 483, 6-(3-cyanopyrrolo[1,2-b]pyridazin-7-yl)-4-((4-(3,3-difluoroazetidine-1-carbonyl)bicyclo[2.2.2]octan-1-yl)amino)-N-methylnicotinamide], the EC50 in the test with TNFα was 64 nM. On IRAK4 enzyme, this molecule gave an IC50 of 1 nM.

For the molecule `CNC(=O)c1cnc(-c2ccc3cc(C#N)cnn23)cc1NC12CCC(C(=O)N3CCC3)(CC1)CC2` [Example 484, 4-((4-(azetidine-1-carbonyl)bicyclo[2.2.2]octan-1-yl)amino)-6-(3-cyanopyrrolo[1,2-b]pyridazin-7-yl)-N-methyl-nicotinamide], the EC50 in the test on TNFα worked out at 63 nM. For the same molecule, the half-inhibitory concentration (IC50) at IRAK4 enzyme was found to be 1 nM.

With `CNC(=O)c1cnc(-c2ccc3cc(C#N)cnn23)cc1NC12CCC(C(=O)NC)(CC1)CC2` [Example 485, 6-(3-cyanopyrrolo[1,2-b]pyridazin-7-yl)-N-methyl-4-((4-(methyl-carbamoyl)bicyclo[2.2.2]octan-1-yl)amino) nicotinamide], the EC50 with TNFα is 39 nM. Moreover, on IRAK4 enzyme, the half-maximal inhibitory concentration (IC50) turned out to be 1 nM.

Consider `CNC(=O)c1cnc(-c2ccc3cc(C#N)cnn23)cc1NC12CCC(NC(=O)OC)(CC1)CC2` [Example 486, methyl (4-((2-(3-cyano-pyrrolo[1,2-b]pyridazin-7-yl)-5-(methylcarbamoyl)pyridin-4-yl)amino)bicyclo[2.2.2]octan-1-yl)carbamate], for which the EC50 in the test with TNFα amounted to 64 nM. Moreover, the midpoint of inhibition against IRAK4 enzyme, the IC50, lay at 1 nM.

`COC(=O)NC12CC(Nc3cc(-c4ccc5cc(C#N)cnn45)ncc3C(=O)NCC#N)(C1)C2` [Example 487, methyl (3-((5-((cyanomethyl)carbamoyl)-2-(3-cyanopyrrolo[1,2-b]pyridazin-7-yl)pyridin-4-yl)amino)bicyclo[1.1.1]pentan-1-yl)carbamate]: the concentration for a half-maximal effect (EC50) in the test with TNFα was 51 nM. Moreover, the IC50 on IRAK4 enzyme is less than 1 nM.

Source of the values: US10336762B2 (priority 2017, dated 2019).
